# Activity calls are given as the source filed them. How the calls were made is not given here.
# Test system: UPR adaptive arm reporter cells, luciferase luminescence
# Experiment: activators of adaptive UPR signalling, dose response, cell-based, luciferase luminescence (AID 489032)
row,SMILES,EC50
1,FC(F)(F)c1nnc2c(Sc3ccccc3)nc3ccc(Cl)cc3n12,> 80 µM (inactive)
2,CC(=O)c1cccc(N=Cc2c(O)c3ccccc3oc2=O)c1,> 80 µM (inactive)
3,CCOC(=O)/C(=C\c1ccccc1)C(=O)c1cc(C(C)=O)c(Nc2ccccc2)s1,> 80 µM (inactive)
4,Cc1ccc(Cl)cc1N1CCN(Cc2nc3c(c(=O)[nH]c(=O)n3C)n2CCc2ccccc2)CC1,> 80 µM (inactive)
5,COc1ccc(CCn2c(=S)[nH]c3cc(C(=O)NCc4ccco4)ccc3c2=O)cc1OC,> 80 µM (inactive)
6,C=CCN=C1S/C(=C/c2cccc([N+](=O)[O-])c2)C(=O)N1CC=C,> 80 µM (inactive)
7,Cc1ccc2nsnc2c1NC(=O)c1ccc(-c2cc(Cl)ccc2Cl)o1,> 80 µM (inactive)
8,O=C(Nc1ccc(O)c(-c2nc3ccccc3s2)c1)c1cc(=O)c2ccccc2o1,> 80 µM (inactive)
9,C/C(=N/NC(=O)c1ccc(Cl)s1)c1ccc(NC(=O)COc2ccc(Cl)cc2)cc1,> 80 µM (inactive)
10,CC1CCc2cc(F)ccc2N1C(=O)CSc1nnc2c(n1)[nH]c1ccc(F)cc12 (centres undefined),> 80 µM (inactive)
11,Cn1nc(C(F)(F)F)c(/C=N/OC(=O)c2ccccc2Cl)c1SCc1ccccc1Cl,22.2 µM (inactive)
12,CCOc1cc(/C=C(\C#N)c2[nH]nc(N)c2C#N)ccc1O,> 80 µM (inactive)
13,COc1ccc(-c2nn(-c3ccccc3)cc2/C=C/C(=O)OCC(=O)Nc2cccc(C#N)c2)cc1,11.9 µM
14,O=C(Oc1ccc(F)cc1C(=O)/C=C/c1cccs1)c1cccc([N+](=O)[O-])c1,51.3 µM (inactive)
15,O=C(C[C@@H]1C/C=C/CC[C@H](Cc2ccc(F)cc2)C(=O)OC[C@@H](Cc2ccccc2)NC1=O)N[C@H](CO)Cc1ccccc1,18.8 µM
16,CN(C)CCCN(C(=O)c1ccc(S(=O)(=O)N2CCc3ccccc3C2)cc1)c1nc2ccc(F)cc2s1,> 80 µM (inactive)
17,CCOC(=O)c1sc(NC(=S)NC(=O)c2ccccc2)c(C(=O)OCC)c1C,> 80 µM (inactive)
18,COc1ccc(C(=O)Nc2cccc(/C=C/c3nc4ccccc4c(=O)[nH]3)c2)cc1,> 80 µM (inactive)
19,CCOC(=O)c1c2ccc(OCC(=O)N/N=C/c3ccc(C)cc3)cc2n2ccccc12,> 80 µM (inactive)
20,O=C(Nc1nc(-c2ccc3ccccc3c2)cs1)c1ccc(N2C(=O)CCC2=O)cc1,> 80 µM (inactive)
21,N=c1n(CC(=O)c2ccc([N+](=O)[O-])cc2)c2ccccc2n1Cc1ccc(Cl)cc1,> 80 µM (inactive)
22,CCc1ccccc1NC(=O)C(CC)Sc1nc2cc3c(cc2c(=O)n1Cc1ccco1)OCO3 (centres undefined),14.6 µM
23,O=C(NC(=S)Nc1ccc(NC(=O)c2cccs2)cc1)c1cc2ccccc2o1,> 80 µM (inactive)

row,SMILES,EC50
1,CCC(=O)Nc1ccc(NC(=O)CSc2nc3cc4c(cc3cc2C)CCC4)cc1,> 80 µM (inactive)
2,CCn1c(/C=C/c2c(C)[nH]c3ccccc23)nc2ccccc2c1=O,> 80 µM (inactive)
3,COc1ccc(OC)c(-c2nnc3n2N=C(c2ccc(OC)c(OCC4CC4)c2)CS3)c1,> 80 µM (inactive)
4,COc1ccc(-c2nn(-c3ccccc3)cc2/C=N/N2C(=O)CSC2=S)cc1,> 80 µM (inactive)
5,Cc1ccc2nc(-c3ccc(NC(=S)NC4CC(C)(C)NC(C)(C)C4)cc3)sc2c1,> 80 µM (inactive)
6,COc1ccc(CNC(=O)/C(C#N)=C/c2cccc(OC)c2OC)cc1,73 µM (inactive)
7,COc1ccc(OC)c(Nc2nc(NCc3ccco3)nc(N)c2[N+](=O)[O-])c1,> 80 µM (inactive)
8,CCOc1ccc(NC(=O)C(Cc2ccccc2)N2C(=O)c3cccc4cccc(c34)C2=O)cc1 (centres undefined),> 80 µM (inactive)
9,COc1cc(-c2ccc3oc(-c4ccsc4)cc3c2)cc(OC)c1OC,> 80 µM (inactive)
10,O=C(Nc1nc2ccccc2s1)c1cc2c(s1)-c1ccccc1OC2,44.9 µM (inactive)
11,Cc1ccc(-c2nnc(-c3ccc(NC(=O)Cc4cccs4)cc3)o2)cc1,> 80 µM (inactive)
12,CN(C)CCCn1cnc2c(c1=N)C(c1ccccc1)c1ccc3ccccc3c1O2 (centres undefined),> 80 µM (inactive)
13,O=Cc1cc2ccccc2nc1SCc1ccc(Cl)c(Cl)c1,52.3 µM (inactive)
14,CCCc1nc2c(c(=O)c3ccccc3n2C)c(=O)n1C1CCCCCC1,> 80 µM (inactive)
15,COc1cc(SC#N)ccc1N=Cc1c(C)[nH]n(-c2ccc(Cl)cc2)c1=O,> 80 µM (inactive)
16,CC1=CC(C)[C@H](/C=N/n2c(=O)[nH]c3c([nH]c4ccc(C)cc43)c2=O)C(C)C1 (some centres undefined),> 80 µM (inactive)
17,CC(C)(C)C(=O)NC(=S)NNC(=O)c1ccc(-c2ccccc2)cc1,9.38 µM
18,Cc1ccc(Nc2nc(NCCO)c3ccccc3n2)cc1C,> 80 µM (inactive)
19,CCOC(=O)c1c(NC(=O)Cc2cccs2)sc(C(=O)NC2CCCCC2)c1C,> 80 µM (inactive)
20,CCOC(=O)C1=C(C)n2c(s/c(=C/c3cccc([N+](=O)[O-])c3)c2=O)=NC1c1ccc(O)c(OC)c1 (centres undefined),> 80 µM (inactive)
21,COC(=O)c1c(NC(=O)CC2Nc3ccccc3NC2=O)sc(C)c1C (centres undefined),> 80 µM (inactive)
22,COc1cc(NC(=O)c2cccs2)ccc1NC(=O)c1cc2ccccc2o1,> 80 µM (inactive)
23,CC1(C)C=Cc2c(c3c(c4c(=O)c(-c5ccc(O)cc5)coc24)OC(C)(C)CC3)O1,> 80 µM (inactive)

row,SMILES,EC50
1,O=C1c2ccccc2C(=O)N1/N=C/c1ccc(O)c(O)c1,> 80 µM (inactive)
2,O=S(=O)(c1ccc2nc(-c3ccccc3)[nH]c2c1)N1CCN(c2ccc(Cl)cc2)CC1,> 80 µM (inactive)
3,CCCCCC(=O)Nc1ccc(C(=O)N/N=C/c2ccc([N+](=O)[O-])cc2)cc1,> 80 µM (inactive)
4,COC(=O)c1sccc1NC(=O)c1cc(-c2cccc(C)c2)nc2ccccc12,> 80 µM (inactive)
5,COc1ccc(C(CCNCc2ccccc2)c2ccc(F)cc2)cc1 (centres undefined),10.7 µM
6,CCCCCCCCCCOC(=O)Cn1c(COc2ccccc2OC)[n+](C)c2ccccc21,18.1 µM
7,O=c1[nH]c(O)c(/C=C2/C=CC(c3cc(Cl)ccc3Cl)=N2)c(=O)[nH]1,9.68 µM
8,COc1cc(C(=O)Nc2nc(-c3ccc(Cl)cc3)c(C)s2)ccc1OCC(=O)Nc1ccc(F)cc1,> 80 µM (inactive)
9,COc1ccc(N=c2oc3ccc(OC)cc3cc2-c2nc3ccccc3[nH]2)cc1,15.3 µM
10,C/C(=N/Nc1cc(-c2ccccc2)nc(-c2ccccc2)n1)c1ccc(O)cc1,19.9 µM
11,CCOC(=O)c1nnc(-c2ccc(C)cc2)nc1Oc1ccc(Cl)cc1Cl,40 µM (inactive)
12,CSC1=NC(C)(C)C=C(/C=C/c2ccc(Cl)cc2)N1,> 80 µM (inactive)
13,Cc1ccc(Cn2c(=O)n(-c3ccccc3)c(=O)c3ccc(C(=O)NCc4ccco4)cc32)cc1,> 80 µM (inactive)
14,O=C(NCCCn1ccnc1)c1nn2c(C(F)(F)F)cc(-c3ccc(Br)cc3)nc2c1Cl,21.6 µM (inactive)
15,CCOc1ccccc1NC(=O)Cn1c(=O)n(-c2ccccc2)c(=O)c2oc3ccccc3c21,> 80 µM (inactive)
16,COc1cc2nc(N3CCN(c4cc(C)ccc4C)CC3)nc(N)c2cc1OC,> 80 µM (inactive)
17,CC1(C)C[C@H](O)[C@]2(CO)[C@H](O)C[C@]3(C)C(=CCC4[C@@]5(C)CC[C@H](O)C(C)(C)C5CC[C@]43C)[C@@H]2C1 (some centres undefined),18.1 µM
18,CCOc1ccc(-n2nc3ccc(NC(=O)c4ccc5c(c4)OCCO5)cc3n2)cc1,> 80 µM (inactive)
19,Oc1ccc(/C=N/Nc2ncnc3c2ncn3Cc2ccccc2)cc1O,11 µM
20,CC1CCc2c(sc(NC(=O)CCc3nc4ccccc4c(=O)[nH]3)c2C#N)C1 (centres undefined),30.3 µM (inactive)
21,COc1ccc(CCn2c(C3CCCCC3)nc3c(c(=O)c4ccccc4n3C)c2=O)cc1,> 80 µM (inactive)
22,COc1ccc([N+](=O)[O-])cc1COc1ccc2c(-c3ccccc3)cc(=O)oc2c1,> 80 µM (inactive)
23,CCOC(=O)/C(=N\Nc1ccc(C(C)=O)cc1)c1csc(Nc2ccccc2)n1,> 80 µM (inactive)

row,SMILES,EC50
1,c1ccc(Oc2c3ccccc3nc3ccccc23)cc1,> 80 µM (inactive)
2,O=C(/C=C/c1ccc(Cl)cc1)NC(=S)Nc1ccc(N2CCOCC2)c(Cl)c1,> 80 µM (inactive)
3,CC(C)c1cccc(-c2ccc3c(c2)S(=O)(=O)c2cccc(C(=O)NCc4ccccc4Cl)c2C3=O)c1,38.4 µM (inactive)
4,O=C(COc1ccc(/C=N/NC(=O)c2cc3ccccc3o2)cc1Br)Nc1ccccc1,> 80 µM (inactive)
5,Cc1cc(NC(=O)c2cc(-c3ccncc3)nc3c(C)cccc23)no1,17.7 µM
6,N#Cc1cnn2c1nc(N1CCCCC1)c1ccccc12,> 80 µM (inactive)
7,Cc1nc(NC(=O)CSc2ccc(-c3nc4ccccc4[nH]3)cn2)sc1C,> 80 µM (inactive)
8,NC(=O)CC(NC(=O)Cc1cccc2ccccc12)c1ccc(NCCOc2ccccc2)c([N+](=O)[O-])c1 (centres undefined),> 80 µM (inactive)
9,CCc1ccc2[nH]c3nc(SCc4nnc(-c5ccc(C)cc5)o4)nnc3c2c1,39.9 µM (inactive)
10,CCC(=O)Nc1ccc(-c2cc(-c3ccccc3)nc(-c3ccc(NC(=O)CC)cc3)n2)cc1,> 80 µM (inactive)
11,CC1CN(S(=O)(=O)c2ccc(C(=O)Nc3nc(-c4cc5ccccc5o4)cs3)cc2)CC(C)O1 (centres undefined),> 80 µM (inactive)
12,O=c1cc(CN2CCN(c3ccccc3)CC2)c2cc(O)c(-c3ccccc3)cc2o1,27.4 µM (inactive)
13,COc1cc(C(=O)Nc2cc(-c3nc4cc(C)ccc4o3)ccc2C)cc(OC)c1OC,> 80 µM (inactive)
14,CCCCCCCCCCOC(=O)Cn1c(COc2ccc(C)cc2)[n+](C)c2ccccc21,> 80 µM (inactive)
15,Cc1ccc(NS(=O)(=O)c2cc([N+](=O)[O-])ccc2N/N=C/c2sc(N3CCOCC3)nc2-c2ccccc2)c(C)c1,> 80 µM (inactive)
16,COc1ccc(C(=O)/C=C/c2cccs2)c(OC(=O)c2cccc([N+](=O)[O-])c2)c1,> 80 µM (inactive)
17,COc1ccc(-c2ccc(C#N)c(SCC(=O)Nc3sc4c(c3C#N)CCC4)n2)cc1OC,> 80 µM (inactive)
18,CCC(=O)Nc1nnc(SCC(=O)c2ccc3c(c2)Cc2ccccc2-3)s1,> 80 µM (inactive)
19,Cc1cccc(NC(=O)c2nc[nH]c2C(=O)Nc2ccccc2[N+](=O)[O-])c1,> 80 µM (inactive)
20,O=C(Cc1ccccc1)c1c[nH]c(C(=O)C(Cl)(Cl)Cl)c1,> 80 µM (inactive)

# Source: PubChem BioAssay AID489032 (Sanford-Burnham Center for Chemical Genomics, 2010)
